Source: ChEMBL document CHEMBL1201862, “PubChem BioAssay data set” (2004)
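In this assay, cells in 96-well plates receive the compound at five concentrations for 48 hours. Endpoints are linearly interpolated between the surrounding concentrations. GI50: concentration for 50% inhibition of growth.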 Activity calls are given as the source filed them. Rule as the data show it: active = GI50 up to about 1.1 µM and inactive = higher.

How the values were obtained:
Experiment in all cases: DTP human tumour cell line panel, 48 h
[1] = test system: NCI-H522
[2] = test system: A498
[3] = test system: UO-31
[4] = test system: HOP-62
[5] = test system: NCI-H460
[6] = test system: CAKI-1
[7] = test system: BT-549
[8] = test system: IGROV-1
[9] = test system: NCI-H23
[10] = test system: K562
[11] = test system: LOX IMVI
[12] = test system: MDA-N
[13] = test system: SK-OV-3
[14] = test system: DU-145
[15] = test system: HOP-92
[16] = test system: U-251
[17] = test system: UACC-257
[18] = test system: MOLT-4
[19] = test system: RPMI-8226
[20] = test system: COLO 205
[21] = test system: T47D
[22] = test system: 786-0
[23] = test system: SF-268
[24] = test system: KM12
[25] = test system: NCI/ADR-RES
[26] = test system: NCI-H226
[27] = test system: MDA-MB-231
[28] = test system: UACC-62
[29] = test system: Hs-578T
[30] = test system: ACHN
[31] = test system: SK-MEL-5
[32] = test system: OVCAR-8
[33] = test system: SK-MEL-28
[34] = test system: A549
[35] = test system: SW-620
[36] = test system: PC-3
[37] = test system: EKVX
[38] = test system: RXF 393
[39] = test system: SNB-75
[40] = test system: TK-10
[41] = test system: HT-29
[42] = test system: CCRF-CEM
[43] = test system: MCF7
[44] = test system: HL-60
[45] = test system: SF-539
[46] = test system: SNB-19
[47] = test system: M14
[48] = test system: HCT-15
[49] = test system: OVCAR-5
[50] = test system: SK-MEL-2
[51] = test system: Malme-3M
[52] = test system: SN12C
[53] = test system: OVCAR-4
[54] = test system: OVCAR-3
[55] = test system: MDA-MB-435
[56] = test system: HCC 2998
[57] = test system: SR
[58] = test system: HCT-116

COP(=N[Si](C)(C)C)(OC)OC
GI50 [1]: > 100 µM (inactive)
GI50 [2]: > 100 µM (inactive)
GI50 [3]: > 100 µM (inactive)
GI50 [4]: > 100 µM (inactive)
GI50 [5]: > 100 µM (inactive)
GI50 [6]: > 100 µM (inactive)
GI50 [7]: > 100 µM (inactive)
GI50 [8]: > 100 µM (inactive)
GI50 [9]: > 100 µM (inactive)
GI50 [10]: > 100 µM (inactive)
GI50 [11]: > 100 µM (inactive)
GI50 [12]: > 100 µM (inactive)
GI50 [13]: > 100 µM (inactive)
GI50 [14]: > 100 µM (inactive)
GI50 [15]: > 100 µM (inactive)
GI50 [16]: > 100 µM (inactive)
GI50 [17]: > 100 µM (inactive)
GI50 [18]: > 100 µM (inactive)
GI50 [19]: > 100 µM (inactive)
GI50 [20]: > 100 µM (inactive)
GI50 [21]: > 100 µM (inactive)
GI50 [22]: > 100 µM (inactive)
GI50 [23]: > 100 µM (inactive)
GI50 [24]: > 100 µM (inactive)
GI50 [25]: > 100 µM (inactive)
GI50 [26]: > 100 µM (inactive)
GI50 [27]: > 100 µM (inactive)
GI50 [28]: > 100 µM (inactive)
GI50 [29]: > 100 µM (inactive)
GI50 [30]: > 100 µM (inactive)
GI50 [31]: > 100 µM (inactive)
GI50 [32]: > 100 µM (inactive)
GI50 [33]: > 100 µM (inactive)
GI50 [34]: > 100 µM (inactive)
GI50 [35]: > 100 µM (inactive)
GI50 [36]: > 100 µM (inactive)
GI50 [37]: > 100 µM (inactive)
GI50 [38]: > 100 µM (inactive)
GI50 [39]: > 100 µM (inactive)
GI50 [40]: > 100 µM (inactive)
GI50 [41]: > 100 µM (inactive)
GI50 [42]: > 100 µM (inactive)
GI50 [43]: > 100 µM (inactive)
GI50 [44]: > 100 µM (inactive)
GI50 [45]: > 100 µM (inactive)
GI50 [46]: > 100 µM (inactive)
GI50 [47]: > 100 µM (inactive)
GI50 [48]: > 100 µM
GI50 [49]: > 100 µM (inactive)
GI50 [50]: > 100 µM (inactive)
GI50 [51]: > 100 µM (inactive)
GI50 [52]: > 100 µM (inactive)
GI50 [53]: > 100 µM (inactive)
GI50 [54]: > 100 µM (inactive)
GI50 [55]: > 100 µM (inactive)
GI50 [56]: > 100 µM (inactive)
GI50 [57]: > 100 µM (inactive)
GI50 [58]: > 100 µM (inactive)
